The values below come from patent US20170107207A1, “AMINOPYRAZOLONE DERIVATIVE” (DAIICHI SANKYO COMPANY, LIMITED, priority 2014, published 2017).

As usually defined, the IC50 is the concentration that inhibits the measured activity by half. A low value points to greater potency in that assay. As usually defined, the GI50 is the concentration that inhibits growth by half.

One test deals with T1, TIP48/TIP49 complex (Homo sapiens, UniProt Q9Y230+Q9Y265).
T1 construct: made in house; host or cells: E. coli
In words: ATPase assay of TIP48/TIP49 complex (ADP-Glo). It is filed as biochemical. The note with it: concentration at which the ATPase activity was inhibited by 50%. The text has this:
The ATPase activity of the TIP48/TIP49 complex can be measured by use of an ATPase assay described below in Test Examples 1 and 2. The ATPase activity of the TIP48/TIP49 complex can be measured, as described below in the Test Examples, for example, by using recombinant human TIP48 and TIP49 proteins (hereinafter, referred to as rTIP48 and rTIP49) and ATP in the presence or absence of a test compound and measuring the amount of ADP formed through hydrolysis by the ATPase activity of the TIP48/TIP49 complex, using ADP-Glo. Alternatively, the ATPase activity of the TIP48/TIP49 complex can be measured by a method described in, for example, J. Mol. Biol. 366, 172-179 (2007).
An ATPase assay of a TIP48/TIP49 complex was conducted using rTIP48 and rTIP49. Human TIP48 and TIP49 DNAs were purchased from Open Biosystems. Human TIP48 and TIP49 cDNAs cloned by PCR using the purchased DNAs were each integrated into plasmids for expression in E. coli and expressed in E. coli to obtain rTIP48 and rTIP49.
A test compound was dissolved at 10 mM using DMSO. The solution was diluted to 10 concentrations as 4-fold serial dilutions from 10 mM using DMSO.
A 2×assay buffer (100 mM Tris-HCl, pH 7.5, 100 mM NaCl, 40 mM MgCl2, 2 mM DTT, 20 μM ATP, and 0.2 mg/mL BSA) was dispensed at 24.5 μL/well to a 384-well assay plate.
Test compound solutions were dispensed thereto at 1 μL/well. Subsequently, the solution in each well was mixed using a plate mixer.
rTIP48 and rTIP49 were diluted to a concentration of 50 μg/mL using sterilized water. The diluted solution was dispensed at 24.5 μL/well to the 384-well assay plate. Subsequently, the solution in each well was mixed using a plate mixer (final concentration: 24.5 μg/mL) (concentration of each test compound solution: 200 μM, 50 μM, 12.5 μM, 3.12 μM, 0.78 μM, 0.20 μM, 0.049 μM, 0.012 μM, 0.003 μM, and 0.0007 μM; DMSO concentration: 2%).
After the mixing using the plate mixer, the assay plate was left standing at room temperature for 1.5 hours.
5 μL of the solution in each well was transferred to a white assay plate, and ADP-Glo Reagent from ADP-Glo Kinase Assay (Promega Corp., catalog No. V9101) was dispensed thereto at 5 μL/well. After completion of the reaction, the plate was left standing at room temperature for 40 minutes. Kinase Detection Reagent was further dispensed thereto at 5 μL/well, and the plate was left standing at room temperature for 30 minutes. Then, luminescence intensity was measured using a plate reader.
The ATPase inhibitory activity was calculated according to the expression given below.
The luminescence intensity of a well supplemented with the test compound and the TIP48/TIP49 complex was defined as A. The luminescence intensity of a well supplemented with only the TIP48/TIP49 complex was defined as B. The luminescence intensity of a well supplemented with neither the test compound nor the TIP48/TIP49 complex was defined as C. The ratio between the test compound-supplemented group and the test compound-nonsupplemented group (T/C value) was determined according to the following calculation expression:
The dose-response curve was calculated using GraphPad Prism 4 from the concentration of each of the serially diluted test compounds and the ATPase inhibitory activity (%) at this concentration.
(In general: ADP-Glo turns the ADP formed in a reaction into a luminescent signal.)

For test [1], the system named is human lymphoma cell line RAMOS cells. In words: Cell growth inhibition test using RAMOS cell, ATP assay (CellTiter-Glo). The note with it: Homo sapiens, 72 h, cultured 3 days, 50% growth inhibition concentration. Type of test: cell-based. The procedure: A cell growth inhibition test was carried out by treating human lymphoma cell line RAMOS cells with a test compound for a given period and then counting the number of viable cells by MTT assay or CellTiter-Glo Luminescent Cell Viability Assay (manufactured by Promega Corp.; hereinafter, referred to as ATP assay).
RAMOS cells were inoculated at 4000 cells/40 μL/well to a 384-well plate containing the compound prepared in advance at predetermined concentrations. The cells thus inoculated were cultured at 37° C. for 3 days under 5% CO2. In order to measure a cell survival rate, CellTiter-Glo Reagent was added in an amount corresponding to 1/4 of the amount of the culture solution at the day of cell inoculation and at the final culture date and stirred at room temperature for 2 minutes. Then, luminescence intensity was measured using a plate reader. The cell survival rate was calculated according to the expression given below.
The number of viable cells and luminescence intensity have been confirmed to correlate with each other. Therefore, the rate of cell growth was calculated according to the following expression: Rate of cell growth (T/C %) of a test compound-supplemented well=100×[(B−C)/(A−C)] wherein A represents the luminescence intensity (final culture date) of a test compound-free well; B represents the luminescence intensity (final culture date) of a test compound-containing well; and C represents the luminescence intensity (day of cell inoculation) of a well at the start of contact of the cells with the test compound.
T/C % at each concentration of the test compound was determined. The concentration at which the test compound offered 50% growth rate was calculated as a GI50 value from the growth rates at two points interpolating 50% and the concentrations, and is shown in Table 56.
A general note: ATP-based viability assays read luminescence as a measure of living cells.

T1 sequence (Q9Y230 whole entry): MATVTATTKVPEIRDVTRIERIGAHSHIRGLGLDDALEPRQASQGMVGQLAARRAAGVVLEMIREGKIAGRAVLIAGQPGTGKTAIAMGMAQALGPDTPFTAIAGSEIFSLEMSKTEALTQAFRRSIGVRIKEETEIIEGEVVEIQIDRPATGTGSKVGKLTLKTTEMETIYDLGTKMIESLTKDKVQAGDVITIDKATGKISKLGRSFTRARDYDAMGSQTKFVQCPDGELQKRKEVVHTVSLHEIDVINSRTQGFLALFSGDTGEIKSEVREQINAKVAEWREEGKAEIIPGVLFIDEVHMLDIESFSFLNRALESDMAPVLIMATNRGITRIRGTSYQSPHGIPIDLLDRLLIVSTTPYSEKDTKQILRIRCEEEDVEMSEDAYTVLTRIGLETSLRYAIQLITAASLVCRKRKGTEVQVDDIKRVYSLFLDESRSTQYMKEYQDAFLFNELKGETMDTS
T1 sequence (Q9Y265 whole entry): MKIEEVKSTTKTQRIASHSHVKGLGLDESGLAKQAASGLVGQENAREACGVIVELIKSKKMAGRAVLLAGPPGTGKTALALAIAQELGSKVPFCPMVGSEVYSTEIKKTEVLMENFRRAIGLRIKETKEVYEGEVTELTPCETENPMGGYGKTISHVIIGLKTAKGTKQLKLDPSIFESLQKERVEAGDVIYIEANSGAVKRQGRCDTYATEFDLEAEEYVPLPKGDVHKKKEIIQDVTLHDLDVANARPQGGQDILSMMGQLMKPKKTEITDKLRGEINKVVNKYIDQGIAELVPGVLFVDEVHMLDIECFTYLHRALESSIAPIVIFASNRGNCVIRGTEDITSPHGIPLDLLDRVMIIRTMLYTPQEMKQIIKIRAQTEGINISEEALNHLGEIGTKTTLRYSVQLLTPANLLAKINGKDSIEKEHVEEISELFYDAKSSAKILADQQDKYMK

Regarding `CCOc1ncc(Cl)cc1C(=O)NCC(C)(C)CC(=O)Nc1c(C(C)CN(C)C)n(C)n(-c2ccccc2)c1=O` (stereo not drawn) [Example 71, 5-Chloro-N-[4-({5-[2-(dimethylamino)-1-methylethyl]-1-methyl-3-oxo-2-phenyl-2,3-dihydro-1H-pyrazol-4-yl}amino)-2,2-dimethyl-4-oxobutyl]-2-ethoxypyridine-3-carboxamide], the IC50 against TIP48/TIP49 complex worked out at 90 nM. For the same compound, it took 420 nM to inhibit growth in test [1] (Ramos) by half (GI50).
The like results for `CCOc1ccc(Cl)cc1C(=O)NCC(C)(C)CC(=O)Nc1c(CC(N)=O)n(C)n(-c2ccccc2)c1=O` [Example 132, N-(4-{[5-(2-Amino-2-oxoethyl)-1-methyl-3-oxo-2-phenyl-2,3-dihydro-1H-pyrazol-4-yl]amino}-2,2-dimethyl-4-oxobutyl)-5-chloro-2-ethoxybenzamide] were, in that order, 100 nM and 120 nM.
The matching figures for `Cc1cc2cc(Cl)cc(C(=O)NCC(C)(C)CC(=O)Nc3c(CCCN(C)C)n(C)n(-c4ccccc4)c3=O)c2o1` [Example 65, 5-Chloro-N-[4-({5-[3-(dimethylamino)propyl]-1-methyl-3-oxo-2-phenyl-2,3-dihydro-1H-pyrazol-4-yl}amino)-2,2-dimethyl-4-oxobutyl]-2-methylbenzofuran-7-carboxamide]: 44 nM and 200 nM.
The matching figures for `CCOc1ccc(Cl)cc1C(=O)NCC(C)(C)CC(=O)Nc1c(CC(=O)OC)n(C)n(-c2ccccc2)c1=O` [Example 131, Methyl 2-[4-({4-[(5-chloro-2-ethoxybenzoyl)amino]-3,3-dimethylbutanoyl}amino)-2-methyl-5-oxo-1-phenyl-2,3-dihydro-1H-pyrazol-3-yl]acetate]: 62 nM and 130 nM.
For `CCOc1ccc(Cl)cc1C(=O)NCC(C)(C)CC(=O)Nc1c(C(C)CN(C)C)n(C)n(-c2ccccc2)c1=O` (stereo not drawn) [Example 66, 5-Chloro-N-[4-({5-[2-(dimethylamino)-1-methylethyl]-1-methyl-3-oxo-2-phenyl-2,3-dihydro-1H-pyrazol-4-yl}amino)-2,2-dimethyl-4-oxobutyl]-2-ethoxybenzamide], on TIP48/TIP49 complex, the IC50 came to 58 nM. In test [1] (Ramos), this compound yielded a GI50 of 160 nM.
The matching figures for `COCOc1ccc(Cl)cc1C(=O)NCC(C)(C)CC(=O)Nc1c(COC)n(C)n(-c2ccccc2)c1=O` [Example 115, 5-Chloro-2-(methoxymethoxy)-N-(4-{[5-(methoxymethyl)-1-methyl-3-oxo-2-phenyl-2,3-dihydro-1H-pyrazol-4-yl]amino}-2,2-dimethyl-4-oxobutyl)benzamide]: 41 nM and 130 nM.
On TIP48/TIP49 complex, `CCOc1ccc(Cl)cc1C(=O)NCC(C)(C)CC(=O)Nc1c(C(CN(C)C)OC)n(C)n(-c2ccccc2)c1=O` (stereo not drawn) [Example 79, 5-Chloro-N-[4-({5-[2-(dimethylamino)-1-methoxyethyl]-1-methyl-3-oxo-2-phenyl-2,3-dihydro-1H-pyrazol-4-yl}amino)-2,2-dimethyl-4-oxobutyl]-2-ethoxybenzamide] gave an IC50 of 51 nM. The same compound returned a GI50 in test [1] (Ramos) of 140 nM.
`CCOc1cc(F)c(Cl)cc1C(=O)NCC(C)(C)CC(=O)Nc1c(C)n(C)n(-c2ccccc2)c1=O` [Example 92, 5-Chloro-N-{4-[(1,5-dimethyl-3-oxo-2-phenyl-2,3-dihydro-1H-pyrazol-4-yl)amino]-2,2-dimethyl-4-oxobutyl}-2-ethoxy-4-fluorobenzamide] registered an IC50 on TIP48/TIP49 complex of 26 nM. The same compound returned a GI50 in test [1] (Ramos) of 560 nM.
The matching figures for `CCOc1ccc(Cl)cc1C(=O)NCC(C)(C)C(F)C(=O)Nc1c(CCN(C)C)n(C)n(-c2ccccc2)c1=O` (stereo not drawn) [Example 91, 5-Chloro-N-[4-({5-[2-(dimethylamino)ethyl]-1-methyl-3-oxo-2-phenyl-2,3-dihydro-1H-pyrazol-4-yl}amino)-3-fluoro-2,2-dimethyl-4-oxobutyl]-2-ethoxybenzamide]: 110 nM and 180 nM.
On TIP48/TIP49 complex, `CCOc1ccc(Cl)cc1C(=O)NCC(C)(C)CC(=O)Nc1c(CCNCC(F)(F)F)n(C)n(-c2ccccc2)c1=O` [Example 26, 5-Chloro-N-[2,2-dimethyl-4-({1-methyl-3-oxo-2-phenyl-5-[2-(2,2,2-trifluoroethylamino)ethyl]pyrazol-4-yl}amino)-4-oxobutyl]-2-ethoxybenzamide] showed an IC50 of 33 nM. The same compound displayed a GI50 in test [1] (Ramos) of 130 nM.
The matching figures for `CNCC(C)c1c(NC(=O)CC(C)(C)CNC(=O)c2cc(Cl)cc3cc(C)oc23)c(=O)n(-c2ccccc2)n1C` (stereo not drawn) [Example 78, 5-Chloro-N-[2,2-dimethyl-4-({1-methyl-5-[1-methyl-2-(methylamino)ethyl]-3-oxo-2-phenyl-2,3-dihydro-1H-pyrazol-4-yl}amino)-4-oxobutyl]-2-methylbenzofuran-7-carboxamide]: 70 nM and 480 nM.
At TIP48/TIP49 complex, `CCOc1cc(F)c(Cl)cc1C(=O)NCC(C)(C)CC(=O)Nc1c(C[C@H](C)N(C)C)n(C)n(-c2ccccc2)c1=O` [Example 52, 5-Chloro-N-[4-({5-[(2S)-2-(dimethylamino)propyl]-1-methyl-3-oxo-2-phenyl-2,3-dihydro-1H-pyrazol-4-yl}amino)-2,2-dimethyl-4-oxobutyl]-2-ethoxy-4-fluorobenzamide] had an IC50 of 36 nM. The compound also returned a GI50 in test [1] (Ramos) of 120 nM.
The like results for `CCOc1ncc(Cl)cc1C(=O)NCC(C)(C)CC(=O)Nc1c(C(CN(C)C)OC)n(C)n(-c2ccccc2)c1=O` (single isomer, unassigned; (-)) [Example 82, (−)-5-Chloro-N-[4-({5-[2-(dimethylamino)-1-methoxyethyl]-1-methyl-3-oxo-2-phenyl-2,3-dihydro-1H-pyrazol-4-yl}amino)-2,2-dimethyl-4-oxobutyl]-2-ethoxypyridine-3-carboxamide] were, in that order, 49 nM and 370 nM.
Consider `CCOc1cc(F)c(Cl)cc1C(=O)NCC(C)(C)C(C)C(=O)Nc1c(COC)n(C)n(-c2ccccc2)c1=O` (stereo not drawn) [Example 159, 5-Chloro-2-ethoxy-4-fluoro-N-(4-{[5-(methoxymethyl)-1-methyl-3-oxo-2-phenyl-2,3-dihydro-1H-pyrazol-4-yl]amino}-2,2,3-trimethyl-4-oxobutyl)benzamide], for which the IC50 against TIP48/TIP49 complex was 77 nM. In test [1], this compound returned a GI50 of 840 nM.
`CCOc1ccc(Cl)cc1C(=O)NCC(C)(C)CC(=O)Nc1c(CCN(C)CCF)n(C)n(-c2ccccc2)c1=O` [Example 36, 5-Chloro-2-ethoxy-N-{4-[(5-{2-[2-fluoroethyl(methyl)amino]ethyl}-1-methyl-3-oxo-2-phenyl-2,3-dihydro-1H-pyrazol-4-yl)amino]-2,2-dimethyl-4-oxobutyl}benzamide] gave an IC50 against TIP48/TIP49 complex of 24 nM. Further, it took 120 nM to inhibit growth in test [1] (Ramos) by half (GI50).
